Entries after “also recorded” stand apart in the source; their conditions may differ. Where two headings read alike, the source gives them in different places.
Experiments:
[1] = test system: PI3K (p85) from NIH/3T3 cells; assay: PI3K activity assay (conversion of PI to PI3P, TLC); format: biochemical
Procedure: PI3K was immunoprecipitated (IP) from the NIH/3T3 cell lysates with rabbit anti-p85 subunit (Upstate). The IPs were washed twice with cold phosphate buffered saline (PBS) buffer containing 0.5% NP-40 and 0.1 mM Na3VO4, and then twice with THE buffer [Tris.HCl pH7.4 20 mM, NaCl 100 mM, EGTA 0.5 mM]. PI3K activity was determined by incubating the beads with kinase buffer [6.5 mM HEPES (pH 7.4), 10 mM MgCl2] with 50 μM ATP, 2 μCi [y-32P]ATP, 4 μg of 3-sn-Phosphatidyl-L-serine (PS) and 2 μg of D-myo-Phosphatidylinositol (PtdIns; PI) (Echelon, Salt Lake City, Utah) for 10 min at room temperature. The reactions were stopped by adding 50 μl of 4N HCl. Phospholipids were extracted using 100 μl of CHCl3/methanol (1:1). […] The conversion of PI to PI3P was detected and quantified using a Storm Phosphorimager (GE Healthcare).
Phosphatidylinositol (PI), including phosphatidylserine (PS) as a carrier, was used as a substrate for PI3K activity assay. [y-32P]ATP and kinase buffer were added to the IP and lipid mixture at room temperature to start the reaction. Phospholipids were extracted in 100 μl of CHCl3/methanol and separated by TLC. Bar charts give quantified results using a phosphorimager.

Rictor-stimulated Akt1 = target: T1, Rictor-stimulated Akt1; assay: Rictor-dependent Akt1 activity, in vitro kinase assay; format: biochemical, mouse (C2C12 myotubes); details: 10 μM
T1 construct: endogenous in cells; host or cells: Rictor from insulin-treated C2C12 myotubes
Source text: Another kinase, termed SGK (serum/glucocorticoid regulated kinase), is also activated by PDK. Similar to Akt, SGK has a PH domain and phosphorylates GSK-3 α/β (Kobayashi, T., Deak, M., Morrice, N., and Cohen, P., 1999, Characterization of the structure and regulation of two novel isoforms of serum- and glucocorticoid-induced protein kinase, Biochem J 344 Pt 1:189-197, and Tessier, M., and Woodgett, J. R., 2006, Serum and glucocorticoid-regulated protein kinases: variations on a theme, J Cell Biochem 98:1391-1407). If Aβ inhibits PH-mediated activations of Akt independent of PIP3, it is predicted to affect this mechanism too. Indeed, in FIG. 7D, ADDL-containing Aβ preparations inhibited PDK-stimulated SGK activity (lane 7 vs. 6 and 5). […] This enhanced activity was not however, interrupted by Aβ (10 μM, lane 4 vs. 3). Lastly, another kinase that converges to phosphorylate GSK, PKA (Grimes, C. A., and Jope, R. S., 2001, The multifaceted roles of glycogen synthase kinase 3beta in cellular signaling, Prog Neurobiol 65:391-426; Li, M., Wang, X., Meintzer, M. K., Laessig, T., Birnbaum, M. J., and Heidenreich, K. A., 2000, Cyclic AMP promotes neuronal survival by phosphorylation of glycogen synthase kinase 3beta, Mol Cell Biol 20:9356-9363), was tested. […] Thus, the mechanism of Aβ inhibition of Akt activation is specific to PDK-like kinases. […]

[2] = test system: PDK-dependent activation of Akt1; assay: In vitro PDK-dependent Akt1 phosphorylation and activity assay (immunoprecipitated PDK1 and Akt1, GSK-3 fusion protein substrate); format: biochemical, human (SH-SY5Y, HEK293), mouse (C2C12); details: for IC50: in vitro Aβ conditions; for Ki: monomeric-predominant preparations
Procedure: (§1) Akt1 was immunoprecipitated (IP) overnight from 100 μg of the human brain sample or from C2C12 myotubes infected with adenovirus encoding Aβ using a 1:100 dilution of goat anti-Akt1 antibody. The following morning, 40 μl of a 50% slurry of protein G-Agarose (PGA) (Roche Applied Science) was added for an additional 1.5 hours. The beads were washed twice with wash buffer [1× phosphate buffered saline (PBS), 0.5% NP-40, 0.1 mM Na3VO4] and twice with kinase buffer [25 mM Tris (pH 7.5), 2 mM DTT, 0.1 mM Na3VO4, 10 mM MgCl2]. ATP (200 μM) and GSK-3 fusion protein (1 μg/50 μl) were added in the presence of kinase buffer, and the final reaction (50 μl) was incubated 30 minutes at 30° C. The reaction was stopped by adding 40 μl of Laemmli buffer. 20 μl of sample was loaded onto a 10% polyacrylamide gel for fractionation and western detection development.
Immunoprecipitates (IPs) of PDK1 and Akt were prepared from 100 μg of either SH-SY5Y, C2C12 myotubes or from insulin-treated cultures. ATP (200 μM), GSK-3 fusion protein (1 μg/50 μl) and kinase buffer were added to the reaction. Various Aβ peptides were finally added at 0.01, 0.1, 1, 5, 10, 20 μM. Akt activity level was otherwise determined as above.

pre-activated Akt1 = target: T2, pre-activated Akt1 (Mus musculus, UniProt P31750); assay: In vitro kinase assay on pre-activated (insulin-conditioned) Akt1; format: biochemical, mouse (C2C12 myotubes); details: 10 μM peptide
T2 construct: Akt1 was immunoprecipitated from control and insulin treated C2C12 myotubes for in vitro kinase assay; endogenous in cells; host or cells: insulin-treated mouse C2C12 myotubes
Procedure: as §1
Variably however, the degree of inhibition sometimes exceeded the baseline activity in the absence of PDK. Thus, it is possible that Aβ may have an additional action to deactivate Akt. […] Insulin stimulated Akt activity in extracts made from C2C12myotube cultures (FIG. 9A, 3rd row, lane 2 vs. 1). […]
In FIG. 9B Aβ42 (10 μM) and scrambled Aβ42 had no effect on insulin-conditioned Akt1 activity. Protein phosphatase 2A (PP2A; 5 μg/ml) decreased levels of both p-Akt (Ser473) and Akt activity (p-GSK-3 α/β), quantified by densitometry below.

[3] = FIG. 7A, vs reverse peptide 5 μM

T2 sequence (P31750 whole entry): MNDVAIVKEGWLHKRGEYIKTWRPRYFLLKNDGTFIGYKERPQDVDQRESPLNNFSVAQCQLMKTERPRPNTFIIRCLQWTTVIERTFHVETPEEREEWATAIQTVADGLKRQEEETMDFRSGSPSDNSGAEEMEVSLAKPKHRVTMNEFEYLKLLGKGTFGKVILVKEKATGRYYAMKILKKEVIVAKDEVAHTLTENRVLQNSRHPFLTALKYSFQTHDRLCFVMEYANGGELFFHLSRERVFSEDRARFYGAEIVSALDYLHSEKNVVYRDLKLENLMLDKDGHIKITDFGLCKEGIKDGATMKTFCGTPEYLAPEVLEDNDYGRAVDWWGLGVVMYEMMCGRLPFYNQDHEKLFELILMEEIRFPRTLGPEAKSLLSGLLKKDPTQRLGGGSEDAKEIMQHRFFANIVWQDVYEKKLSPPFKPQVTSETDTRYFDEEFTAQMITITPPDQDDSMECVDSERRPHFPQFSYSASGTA
T1 sequence (P31749 whole entry): as the sequence (P31750 whole entry) above, with N2S, S50A, A100T, R112K, T117E, T389K, N410G, D415H counted along it

Question: Which PI3K activity ([1]; 10 μM peptide) does the source give for “Aβ42: synthetic 42 amino acid β-amyloid peptide, forward sequence, freshly prepared, predominantly monomeric (BioSource)” here?
Answer: did not; also recorded: no effect

Question: And the PI3K activity ([1]; dose-response: Aβ1-42 0.05, 0.5, 5 μM, reverse Aβ42-1 5 μM)?
Answer: no effect

Question: And the “Rictor-stimulated Akt1 activity” value (Rictor-stimulated Akt1)?
Answer: no change

Question: And the “effect on PDK-stimulated Akt activity (GSK-3 substrate phosphorylation)” value ([2]; 5 μM (or doses up to 5 μM))?
Answer: dramatically inhibited

Question: And the “effect on PDK-stimulated Akt activity / Akt phosphorylation” value ([2]; 10 μM)?
Answer: completely abrogated

Question: What about the “inhibition of Akt phosphorylation” value ([2]; 10 μM, freshly prepared predominantly monomeric peptide) of the same substance?
Answer: up to 50%

Question: What about the “effect on PDK-stimulated Akt activity / Akt phosphorylation” value ([2]; 10 μM, listed as Aβ) of the same substance?
Answer: inhibited

Question: And the “concentrations that significantly inhibit Akt phosphorylation (activation)” value [2, 3]?
Answer: ≥ 10 µM

Question: What about the “concentrations that significantly inhibit the stimulation of Akt activity” value [2, 3] of the same substance?
Answer: ≥ 5 µM

Question: And the “concentration at which Akt activation (pSer473, pThr308) and Akt activity begin to be affected” value ([2]; SH-SY5Y IP kinases, FIG. 6B)?
Answer: ~1 μM

Question: And the IC50 ([2]; FIG. 7A, read-out: PDK-dependent Akt1 phosphorylation (Ki50))?
Answer: ~10000 nM

Question: What about the IC50 ([2]; activity assay, FIG. 7A, listed as Aβ, read-out: PDK-dependent Akt1 activation (Ki50)) of the same substance?
Answer: ~1000 nM

Question: What about the IC50 ([2]; activity assay, FIG. 7A, read-out: PDK-dependent Akt1 activation (Ki50)) of the same substance?
Answer: 1000 nM

Question: And the Ki ([2]; read-out: Ki in activity assays)?
Answer: ~2000 nM

Question: What about the Ki ([2]; read-out: Ki in western blots of p-Akt levels) of the same substance?
Answer: ~10000 nM

Question: What about the “PDK stimulation of Akt activity after preincubation and washout” value ([2]; preincubation of both IP kinases, washout before kinase reaction) of the same substance?
Answer: no inhibitory effect

Question: And the “insulin-conditioned Akt1 activity and p-Ser473 levels” value (pre-activated Akt1)?
Answer: no effect
